Test results from PMC9176062, “Phase Ib study of combinations of avadomide (CC‐122), CC‐223, CC‐292, and rituximab in patients with relapsed/refractory diffuse large B‐cell lymphoma” (EJHaem, 2022).

Experiments:
[1] = system: R/R DLBCL; conditions: cited from earlier work; for CR rates: monotherapy, third‐line setting
[2] = system: pAKT; experiment: mTOR signaling pathway biomarker pAKT in blood; type: in vivo, human
Method: (§1) AEs were assessed according to the National Cancer Institute Common Terminology Criteria for AEs, version 4.03, up to 28 days after the last treatment. Blood samples for PK analysis were collected on days 15 to 28, predose, and at 1.5 and 3 h post‐dose on days 1 and 15 of cycle 1 for all dose cohorts. Additional blood samples were collected on day 15 from patients in dose level 2 of arm C to examine CC‐223 and CC‐292 steady‐state PK. Pharmacodynamic biomarkers of each novel agent were explored at baseline and cycle 1, day 1 (pre‐dose, and at 1.5 and 3 h) and cycle 1, day 15 (pre‐dose, and at 1.5 and 3 h), including cereblon modulation substrates in B and T cells in patients treated with CC‐122 and mTOR signaling pathway biomarkers (e.g., p4EBP1 and pAKT) in patients treated with CC‐223. Tumor assessments were performed at screening and at the end of even‐numbered cycles through cycle 6, then every three cycles through cycle 12, and every 6 months thereafter. Responses were assessed by the investigator per International Working Group 2007 criteria.
(§2) Safety analyses were performed on all patients who received ≥1 dose of study treatment (safety population). The PK population comprised all patients who took ≥1 dose of study treatment and had ≥1 measured drug concentration. […] The biomarker‐evaluable population comprised all patients who took ≥1 dose of study treatment and had ≥1 pharmacodynamic assessment. […] PK parameters were calculated using actual times relative to the most recent administration. The median duration of response (DOR) and median PFS were calculated per the Kaplan‐Meier method.
(§3) Per cent change from baseline in Aiolos in CD3+ T cells (A) and CD19+ B cells (B) and in p4EBP1 (C) and pAKT (D) at 3 h post‐dose on day 1 of cycle 1 (biomarker‐evaluable population). The change in Aiolos expression in CD3+ T cells and CD19+ B cells was calculated within each avadomide‐ and CC‐223‐containing arm. *p ≤ 0.05 versus baseline; **p ≤ 0.01 versus baseline; ***p ≤ 0.001 versus baseline; DL, dose level; MEFL, molecules of equivalent fluorescence label; NS, not significant

[3] = system: p4EBP1; experiment: mTOR signaling pathway biomarker p4EBP1 in blood; type: in vivo, human
Method: as §1, §2, §3

[4] = Steady‐state plasma pharmacokinetics; type: in vivo; conditions: human, oral, CC‐223 + CC‐292 (arm C dose level 2, day 15); for clearance: read-out: apparent plasma clearance (converted); for Vd: read-out: mean apparent volume of distribution; for Tmax: read-out: median Tmax; for half-life: read-out: terminal half‐life (converted)
Method: as §1
Safety analyses were performed on all patients who received ≥1 dose of study treatment (safety population). The PK population comprised all patients who took ≥1 dose of study treatment and had ≥1 measured drug concentration. […] The biomarker‐evaluable population comprised all patients who took ≥1 dose of study treatment and had ≥1 pharmacodynamic assessment. Safety and efficacy analyses were based on the safety population except where noted (PK and biomarkers). PK parameters were calculated using actual times relative to the most recent administration. The median duration of response (DOR) and median PFS were calculated per the Kaplan‐Meier method.
FIGURE S3 Summary of pharmacokinetic parameters and mean plasma concentration-time profiles of (A) CC-223 and (B) CC-292. Summary of pharmacokinetic parameters and mean plasma concentration-time profiles of (A) CC-223 and (B) CC-292. […] Data are geometric means (CV%) except for Tmax, for which medians (min, max) are presented.

[5] = system: patients with R/R DLBCL; experiment: Treatment duration, modification, and exposure; type: in vivo; conditions: for patients with dose reductions of the drug: all patients who received the drug
Method: CC‐122 hydrochloride, referred to here as CC‐122, as an active pharmaceutical ingredient in capsule (AIC) formulation, was administered orally once daily (QD). An alternate intermittent schedule of CC‐122 QD for five of every seven consecutive days (5/7), which improved tolerability and reduced the frequency and severity of neutropenia in a study of CC‐122 monotherapy in DLBCL, was also explored. CC‐292 was administered orally twice daily (BID) and CC‐223 was administered orally QD. Rituximab was administered on day 8 of cycle 1, day 1 of cycles 2–6, and day 1 of every third cycle thereafter. Patients in arm A received CC‐122 and CC‐223 with or without rituximab (starting at CC‐122 2 mg QD and CC‐223 20 mg QD), patients in arm B received CC‐122 plus CC‐292 with or without rituximab (starting at CC‐122 2 mg QD and CC‐292 500 mg BID), patients in arm C were treated with CC‐223 and CC‐292 (starting at CC‐223 20 mg QD and CC‐292 500 mg BID), and those in arm D received CC‐122 plus rituximab (starting at CC‐122 2 mg QD). In arm D, a CC‐122 3 mg formulated capsule was introduced with the same strength as CC‐122 3 mg AIC. Each dose level was cleared before the next was started. If unacceptable toxicity occurred at the initial dose level, dose reductions for CC‐122 (1.5 mg QD and 1 mg QD) and CC‐223 (15 mg QD) were allowed; no starting dose reductions for CC‐292 were planned. For arm A, the Safety Review Committee (SRC) determined which of the two drugs in the doublet to reduce. For arms B and D, the CC‐122 dose was reduced and for arm C, the CC‐223 dose was reduced. Assignment of patients to study arms was at the discretion of the investigator and based on slot availability per the study design.
Patients who experienced dose‐limiting toxicity (DLT) after receiving ≥1 dose of study treatment or those who received ≥80% of planned doses of CC‐122, CC‐223, CC‐292, and rituximab during cycle 1 without experiencing a DLT were considered DLT‐evaluable. If zero out of ≥3 or ≤1 out of six evaluable patients in a cohort experienced a DLT during cycle 1 in parallel dose cohorts, then dose escalation could occur. DLTs are defined in the Supplementary Materials; individual investigators performed response assessments and determined DLTs. The NTD was defined as the dose level at which ≥2 of six evaluable patients in a cohort experienced a DLT during cycle 1. […] During cycle 1, any adverse event (AE) that led to dose reduction was considered a DLT. Patients could resume CC‐122 at a reduced dose only if they recovered to grade ≤1 within 14 days of dose interruption; two dose reductions were allowed before the patient was withdrawn from the study. Dose reductions were permitted for CC‐122, CC‐223, and CC‐292; no dose reductions were allowed for rituximab, but treatment could be discontinued at the discretion of the investigator. […] For arms A, B, and D, CC‐122 dosing was modified to the intermittent 5/7‐day schedule based on SRC review and escalated until the MTD/RP2D was established. Treatment was given until disease progression, unacceptable toxicity, or patient/physician decision to withdraw consent.
^aTreatment duration defined as date of last derived dose – date of first dose + 1.
^bDefined as the ratio of actual dose received to planned dose over the treatment period.

[6] = system: DOHH2 cells; experiment: DOHH2 xenograft model; type: in vivo; conditions: DLBCL xenograft model (DOHH2, SCID mice); avadomide oral once daily, rituximab 1 mg/kg once weekly
Method: Female severe combined immunodeficiency (SCID) mice (CB17/Icr-Prkdcscid, Charles River) were 8 weeks old, with body weights ranging from 15.0 g to 23.2 g on day 1 of these studies. Each SCID mouse was injected subcutaneously in the right flank with 5 × 10^6 DOHH2 cells (0.2-mL cell suspension). Tumors were calipered in 2 dimensions to monitor growth as their mean volume approached 100 to 150 mm^3. Fourteen days after tumor cell implantation, mice were sorted into treatment groups of 10 mice per group. Tumors were calipered twice weekly during the study. Avadomide was suspended in 0.5% carboxymethyl cellulose (0.25% Tween-80 in deionized water). Vehicle control and avadomide were each administered via oral gavage once daily; rituximab (1 mg/kg) was administered once weekly for the duration of the study.
FIGURE S1 Change in the percentage of apoptotic cells over time (A) and in vivo tumor growth response after combination treatment with avadomide and rituximab (B). Natural killer cell activity against DOHH or RL FL cell lines determined by flow cytometry is shown (A). Female CB17 severe combined immunodeficiency mice implanted subcutaneously with DOHH2 cells were administered vehicle and avadomide once daily and rituximab given 1 mg/kg once weekly (B). SEM, standard error of the mean; TGI, tumor growth inhibition. mm^3

[7] = patients with a complete response
[8] = arm A (with CC‐122), 20 mg of CC‐223, 3 h post‐dose vs baseline
[9] = arm C (with CC‐292), 20 mg of CC‐223, 3 h post‐dose
[10] = arm C (with CC‐292), CC‐223 15 mg
[11] = Overall (all arms with the drug)

## axicabtagene ciloleucel
[1]; [7]
  24‐month PFS: 72%

## CO[C@H]1CC[C@H](N2C(=O)CNc3ncc(-c4ccc(C(C)(C)O)nc4)nc32)CC1 [CC‐223]
[2]; [8]
  median reduction in pAKT levels: ~70%
[2]; [9]
  median reduction of pAKT levels: approximately 50%
[2]; [10]
  reduction of pAKT levels: approximately 50%
[3]; [8]
  median reduction in p4EBP1 levels: approximately 30%
[3]; [9]
  increase of p4EBP1 levels from baseline: approximately 8%
[3]; [10]
  reduction of p4EBP1: approximately 30%
[4]
  clearance: ~405 mL/min
  Vd: 127 L
  Tmax: 1.5 h
  half-life: ~3.6 h
[5]; Arm A (Avadomide + CC-223 ± R)
  ≥1 dose interruption: 25 (80.6) n (%)
  ≥1 dose interruption: Adverse event: 23 (74.2) n (%)
  ≥1 dose interruption: Other: 10 (32.3) n (%)
  ≥1 dose interruption: Per protocol: 1 (3.2) n (%)
  ≥1 dose reduction: 10 (32.3) n (%)
  ≥1 dose reduction: Adverse event: 7 (22.6) n (%)
  ≥1 dose reduction: Other: 2 (6.5) n (%)
  ≥1 dose reduction: Per protocol: 0 n (%)
[5]; Arm C (CC-292 + CC-223)
  ≥1 dose interruption: 9 (64.3) n (%)
  ≥1 dose interruption: Adverse event: 8 (57.1) n (%)
  ≥1 dose interruption: Other: 3 (21.4) n (%)
  ≥1 dose interruption: Per protocol: 1 (7.1) n (%)
  ≥1 dose reduction: 1 (7.1) n (%)
  ≥1 dose reduction: Adverse event: 1 (7.1) n (%)
  ≥1 dose reduction: Other: 0 n (%)
  ≥1 dose reduction: Per protocol: 0 n (%)
[5]; [11]
  ≥1 dose interruption: 34 (75.6) n (%)
  ≥1 dose interruption: Adverse event: 31 (68.9) n (%)
  ≥1 dose interruption: Other: 13 (28.9) n (%)
  ≥1 dose interruption: Per protocol: 2 (4.4) n (%)
  ≥1 dose reduction: 11 (24.4) n (%)
  ≥1 dose reduction: Adverse event: 8 (17.8) n (%)
  ≥1 dose reduction: Other: 2 (4.4) n (%)
  ≥1 dose reduction: Per protocol: 0 n (%)
[5]
  patients with dose reductions of the drug: 24.4%

## O=C(/C=C\n1cnc(-c2cc(C(F)(F)F)cc(C(F)(F)F)c2)n1)NNc1cnccn1 [selinexor, reference compound]
[1]
  CR rates: 12%

## C=CC(=O)Nc1cccc(Nc2nc(Nc3ccc(OCCOC)cc3)ncc2F)c1 [CC‐292]
[4]
  clearance: ~1170 mL/min
  Vd: 334 L
  Tmax: 1.5 h
  half-life: ~3.3 h
[5]; Arm B (Avadomide + CC-292 ± R)
  ≥1 dose interruption: 14 (51.9) n (%)
  ≥1 dose interruption: Adverse event: 5 (18.5) n (%)
  ≥1 dose interruption: Other: 8 (29.6) n (%)
  ≥1 dose interruption: Per protocol: 1 (3.7) n (%)
  ≥1 dose reduction: 12 (44.4) n (%)
  ≥1 dose reduction: Adverse event: 5 (18.5) n (%)
  ≥1 dose reduction: Other: 8 (29.6) n (%)
  ≥1 dose reduction: Per protocol: 1 (3.7) n (%)
[5]; Arm C (CC-292 + CC-223)
  ≥1 dose interruption: 6 (42.9) n (%)
  ≥1 dose interruption: Adverse event: 3 (21.4) n (%)
  ≥1 dose interruption: Other: 1 (7.1) n (%)
  ≥1 dose interruption: Per protocol: 1 (7.1) n (%)
  ≥1 dose reduction: 4 (28.6) n (%)
  ≥1 dose reduction: Adverse event: 3 (21.4) n (%)
  ≥1 dose reduction: Other: 1 (7.1) n (%)
  ≥1 dose reduction: Per protocol: 1 (7.1) n (%)
[5]; [11]
  ≥1 dose interruption: 20 (48.8) n (%)
  ≥1 dose interruption: Adverse event: 8 (19.5) n (%)
  ≥1 dose interruption: Other: 9 (22.0) n (%)
  ≥1 dose interruption: Per protocol: 2 (4.9) n (%)
  ≥1 dose reduction: 16 (39.0) n (%)
  ≥1 dose reduction: Adverse event: 8 (19.5) n (%)
  ≥1 dose reduction: Other: 9 (22.0) n (%)
  ≥1 dose reduction: Per protocol: 2 (4.9) n (%)
[5]
  patients with dose reductions of the drug: 39.0%

## lisocabtagene maraleucel
[1]; [7]
  estimated 12‐month PFS rate: 65%

## rituximab [reference compound]
[5]; Arm A (Avadomide + CC-223 ± R)
  ≥1 dose interruption: 9 (47.4) n (%)
  ≥1 dose interruption: Adverse event: 6 (31.6) n (%)
  ≥1 dose interruption: Other: 5 (26.3) n (%)
[5]; Arm B (Avadomide + CC-292 ± R)
  ≥1 dose interruption: 2 (16.7) n (%)
  ≥1 dose interruption: Adverse event: 2 (16.7) n (%)
  ≥1 dose interruption: Other: 1 (8.3) n (%)
[5]; Arm D (Avadomide + R)
  ≥1 dose interruption: 2 (6.7) n (%)
  ≥1 dose interruption: Adverse event: 1 (3.3) n (%)
  ≥1 dose interruption: Other: 2 (6.7) n (%)
[5]; [11]
  ≥1 dose interruption: 13 (21.3) n (%)
  ≥1 dose interruption: Adverse event: 9 (14.8) n (%)
  ≥1 dose interruption: Other: 8 (13.1) n (%)
[6]
  tumor growth inhibition (TGI): 19%

## tisagenlecleucel
[1]; patients with a complete response at 3 months
  36‐month PFS: 70%

## loncastuximab tesirine [reference compound]
[1]
  CR rates: 24%
